# Test results from ChEMBL document CHEMBL3301562, “MMV Box screening against Plasmodium falciparum protein kinases and aminoacyl tRNA synthetases”.
# Columns and labels:
# Format in all cases: functional
# [1] = target: Calcium-dependent protein kinase 1 (Plasmodium falciparum, UniProt P62344); assay: MMV: CDPK1 Protein kinase inhibition assay using recombinant PfCDPK1, syntide 2 peptide substrate, ATP and KinaseGlo to measure % inhibition at 1 uM MMV box compound.
# [2] = target: T1, Putative uncharacterized protein pk7 (Plasmodium falciparum, UniProt O96214); assay: Final concentrations were 1 uM ATP, 2 mM DTT, 20 mM MgCl2, 2 mM MnCl2, 0.01% BSA, and 6 ug/ml PK7, in a buffer of 20 mM Tris-HCl (pH 7.5). The enzyme itself was the only substrate present (since autophosphorylation occurs); 100 uM 1NA-PP1 was used as a control inhibitor. Incubation time was 3 hours.
# T1 sequence (O96214 whole entry): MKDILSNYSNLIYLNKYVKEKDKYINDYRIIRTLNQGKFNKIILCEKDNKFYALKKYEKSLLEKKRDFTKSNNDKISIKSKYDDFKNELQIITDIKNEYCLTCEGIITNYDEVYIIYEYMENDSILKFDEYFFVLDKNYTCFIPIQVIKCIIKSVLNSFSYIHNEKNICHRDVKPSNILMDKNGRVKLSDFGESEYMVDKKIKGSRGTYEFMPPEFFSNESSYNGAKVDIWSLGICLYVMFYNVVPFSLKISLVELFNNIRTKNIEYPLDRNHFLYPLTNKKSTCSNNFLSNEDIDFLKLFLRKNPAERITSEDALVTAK
# Proline--tRNA ligase = target: T2, Proline--tRNA ligase (Plasmodium falciparum (isolate 3D7), UniProt Q8I5R7); assay: MMV: ProRS recombinant Plasmodium falciparum Prolyl-tRNA-synthetase, assay with yeast tRNA, ATP, and proline and 3 uM MMV malaria box compound, assay read out with kinase glo as % inhibition.
# T2 sequence (Q8I5R7 whole entry): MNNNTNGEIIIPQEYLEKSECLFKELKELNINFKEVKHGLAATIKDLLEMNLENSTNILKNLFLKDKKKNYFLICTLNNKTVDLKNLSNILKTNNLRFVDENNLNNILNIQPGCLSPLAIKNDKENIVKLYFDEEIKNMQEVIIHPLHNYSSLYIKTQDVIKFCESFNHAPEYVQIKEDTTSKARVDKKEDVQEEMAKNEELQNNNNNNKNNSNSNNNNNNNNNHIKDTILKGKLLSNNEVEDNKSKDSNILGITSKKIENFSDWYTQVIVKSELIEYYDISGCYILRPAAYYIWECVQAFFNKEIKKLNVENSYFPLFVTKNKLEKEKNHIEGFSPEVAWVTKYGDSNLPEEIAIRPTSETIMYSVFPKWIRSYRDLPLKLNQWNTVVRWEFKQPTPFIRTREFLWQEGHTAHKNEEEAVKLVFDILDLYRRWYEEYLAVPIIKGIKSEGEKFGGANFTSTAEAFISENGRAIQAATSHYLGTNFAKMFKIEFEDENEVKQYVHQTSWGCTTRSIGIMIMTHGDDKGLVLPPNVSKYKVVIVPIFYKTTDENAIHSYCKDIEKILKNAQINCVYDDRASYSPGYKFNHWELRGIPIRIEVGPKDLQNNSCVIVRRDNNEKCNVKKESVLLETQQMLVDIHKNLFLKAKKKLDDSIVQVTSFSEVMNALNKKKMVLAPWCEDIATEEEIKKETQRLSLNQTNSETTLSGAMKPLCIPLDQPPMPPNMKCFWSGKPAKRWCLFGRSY
# [3] = target: T3, Cdk-related protein kinase 6 (Plasmodium falciparum, UniProt O77239); assay: Final concentrations were 1.5 uM ATP, 5 mM MnCl2, and 15 ug/ml PK6 in a buffer of 100 mM Tris-HCl (pH 7.5). 50 ug/mL MBP was provided as the substrate; 10 uM staurosporine was used as a control inhibitor. Incubation time was 3 hours and 40 minutes.The catalytic activity of each kinase was considered proportional to ATP consumed, as determined from measurements of residual [ATP] with the luciferase-based reagent Kinase-Glo (Promega) following incubation. Luminescence (proportional to residual [ATP]) was measured on the plate readers FLx800 (BioTek Instruments, Winooski, VT, USA) and MicroBeta2.
# T3 sequence (O77239 whole entry): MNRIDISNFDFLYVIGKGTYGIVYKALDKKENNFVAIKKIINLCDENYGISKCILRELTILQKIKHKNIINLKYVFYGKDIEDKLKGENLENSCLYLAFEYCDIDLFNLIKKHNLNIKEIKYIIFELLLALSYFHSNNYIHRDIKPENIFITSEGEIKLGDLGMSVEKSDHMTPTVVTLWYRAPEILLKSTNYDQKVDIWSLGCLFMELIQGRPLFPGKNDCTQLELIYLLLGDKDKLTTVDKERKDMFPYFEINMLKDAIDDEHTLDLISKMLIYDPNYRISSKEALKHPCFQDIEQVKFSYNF
# [4] = target: T4, Calcium-dependent protein kinase 4 (Plasmodium falciparum (isolate 3D7), UniProt Q8IBS5); assay: MMV: CDPK4 Protein kinase inhibition assay using recombinant PfCDPK4, syntide2 peptide substrate, ATP and KinaseGlo to measure % inhibition at 1 uM MMV box compound.
# T4 sequence (Q8IBS5 whole entry): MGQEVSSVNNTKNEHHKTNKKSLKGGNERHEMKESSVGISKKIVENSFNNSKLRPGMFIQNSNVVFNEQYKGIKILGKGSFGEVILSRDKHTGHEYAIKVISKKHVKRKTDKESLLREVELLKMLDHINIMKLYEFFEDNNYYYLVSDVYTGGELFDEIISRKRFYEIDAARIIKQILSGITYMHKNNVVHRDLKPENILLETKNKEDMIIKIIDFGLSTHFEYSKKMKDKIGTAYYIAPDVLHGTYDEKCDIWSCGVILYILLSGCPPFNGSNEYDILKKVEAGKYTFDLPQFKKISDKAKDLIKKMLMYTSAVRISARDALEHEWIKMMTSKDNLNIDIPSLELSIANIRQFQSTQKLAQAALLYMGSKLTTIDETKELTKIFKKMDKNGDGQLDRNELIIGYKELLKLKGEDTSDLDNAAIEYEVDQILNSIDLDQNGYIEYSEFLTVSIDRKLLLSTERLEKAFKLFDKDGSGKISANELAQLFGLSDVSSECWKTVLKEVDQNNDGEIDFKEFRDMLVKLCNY
# Lysine--tRNA ligase = Lysine--tRNA ligase (Plasmodium falciparum (isolate 3D7), UniProt Q8IDJ8); assay: MMV: KRS recombinant Plasmodium falciparum Lysyl-tRNA-synthetase, assay with yeast tRNA, ATP, and lysine and 3 uM MMV malaria box compound, assay read out with kinase glo as % inhibition.
# Chain of Lysine--tRNA ligase (Q8IDJ8 whole entry): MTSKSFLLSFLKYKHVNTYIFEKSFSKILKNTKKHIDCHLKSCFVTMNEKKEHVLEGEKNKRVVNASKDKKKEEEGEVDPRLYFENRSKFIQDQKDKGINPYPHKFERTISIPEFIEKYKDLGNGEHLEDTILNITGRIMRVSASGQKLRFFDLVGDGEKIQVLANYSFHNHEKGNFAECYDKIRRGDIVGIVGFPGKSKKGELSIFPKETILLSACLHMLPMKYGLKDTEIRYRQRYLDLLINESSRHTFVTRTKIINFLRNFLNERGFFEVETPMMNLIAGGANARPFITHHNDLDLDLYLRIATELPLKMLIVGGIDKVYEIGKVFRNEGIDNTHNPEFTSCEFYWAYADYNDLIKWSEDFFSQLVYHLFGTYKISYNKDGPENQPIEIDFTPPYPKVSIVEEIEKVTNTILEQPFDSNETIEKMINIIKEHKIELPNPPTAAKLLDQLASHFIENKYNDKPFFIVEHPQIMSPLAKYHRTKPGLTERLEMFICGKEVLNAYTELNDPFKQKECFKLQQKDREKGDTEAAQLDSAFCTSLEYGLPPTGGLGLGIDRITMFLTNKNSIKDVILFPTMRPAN
# [5] = target: T5, Mitogen-activated protein kinase (Plasmodium falciparum, UniProt Q25917); assay: Final concentrations were 1 uM ATP, 0.5 mM DTT, 1 mM MgCl2, 0.5 mg/mL BSA, and 10 ug/ml MAP2 in a buffer of 50 mM HEPES (pH 7.0). 0.5 mg/mL histone III-S served as the substrate (13); 100 uM AMP-PNP, an ATP analog, was used as a control inhibitor. Incubation time was 4 hours.
# T5 sequence (Q25917 whole entry): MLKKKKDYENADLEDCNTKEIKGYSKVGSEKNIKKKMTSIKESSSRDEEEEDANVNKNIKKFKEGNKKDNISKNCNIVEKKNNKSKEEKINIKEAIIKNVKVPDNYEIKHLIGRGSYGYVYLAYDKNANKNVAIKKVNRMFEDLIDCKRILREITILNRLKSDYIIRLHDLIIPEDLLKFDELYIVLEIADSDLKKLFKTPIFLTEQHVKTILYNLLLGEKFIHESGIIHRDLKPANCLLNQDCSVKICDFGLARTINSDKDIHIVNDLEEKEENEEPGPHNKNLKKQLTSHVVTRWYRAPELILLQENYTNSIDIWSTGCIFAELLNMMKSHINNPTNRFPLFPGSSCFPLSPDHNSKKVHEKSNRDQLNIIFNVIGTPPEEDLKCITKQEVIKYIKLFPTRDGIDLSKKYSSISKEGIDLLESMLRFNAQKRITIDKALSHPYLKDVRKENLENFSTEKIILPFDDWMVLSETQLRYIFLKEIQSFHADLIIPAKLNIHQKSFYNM
# Chain of Calcium-dependent protein kinase 1 (P62344 whole entry): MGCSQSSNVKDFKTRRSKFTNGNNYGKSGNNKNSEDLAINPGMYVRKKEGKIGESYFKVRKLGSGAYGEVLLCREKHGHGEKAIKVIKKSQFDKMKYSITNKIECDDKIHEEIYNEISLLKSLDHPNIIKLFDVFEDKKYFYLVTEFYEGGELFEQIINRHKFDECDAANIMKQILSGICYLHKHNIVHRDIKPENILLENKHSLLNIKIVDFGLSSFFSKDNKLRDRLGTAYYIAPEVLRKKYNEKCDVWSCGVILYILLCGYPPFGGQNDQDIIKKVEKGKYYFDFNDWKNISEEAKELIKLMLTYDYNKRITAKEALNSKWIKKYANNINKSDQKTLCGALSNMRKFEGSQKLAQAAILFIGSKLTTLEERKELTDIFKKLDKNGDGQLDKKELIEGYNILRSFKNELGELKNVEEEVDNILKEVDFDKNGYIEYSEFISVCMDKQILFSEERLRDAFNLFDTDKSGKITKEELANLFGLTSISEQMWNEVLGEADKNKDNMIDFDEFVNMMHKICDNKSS
Structure (SMILES),IC50 [1],IC50 [2],IC50 (Proline--tRNA ligase),IC50 [3],IC50 [4],IC50 (Lysine--tRNA ligase),IC50 [5]
CN1CCN(c2ccc(Nc3c4ccccc4nc4ccccc34)cc2)CC1,> 1 µM,> 1 µM,> 2.5 µM,> 1 µM,> 1 µM,> 2.5 µM,> 1 µM
CCN(CC)CCNc1ncnc2c1[nH]c1ccc(Cl)cc12,> 1 µM,> 1 µM,> 2.5 µM,> 1 µM,> 1 µM,> 2.5 µM,> 1 µM
CCN(CC)CCNc1ccnc2cc(Cl)ccc12,> 1 µM,> 1 µM,> 2.5 µM,> 1 µM,> 1 µM,> 2.5 µM,> 1 µM
Cc1cc(Nc2ccc3ccccc3c2)n2ncnc2n1,> 1 µM,> 1 µM,> 2.5 µM,> 1 µM,> 1 µM,> 2.5 µM,> 1 µM
CCC(c1ccccc1)c1nn2c(-c3cccs3)nnc2s1 (configuration not stated),> 1 µM,> 1 µM,> 2.5 µM,> 1 µM,> 1 µM,> 2.5 µM,> 1 µM
CC(C)(C)c1ccc(O)c(CNC2CCCCC2)c1,> 1 µM,> 1 µM,> 2.5 µM,> 1 µM,> 1 µM,> 2.5 µM,> 1 µM
CC1CN(C(=O)c2sc3ccccc3c2Cl)CC(C)O1 (configuration not stated),> 1 µM,> 1 µM,> 2.5 µM,> 1 µM,> 1 µM,> 2.5 µM,> 1 µM
CN(C)c1ccc(C=Cc2nc(=O)c3ccccc3o2)cc1,> 1 µM,> 1 µM,> 2.5 µM,> 1 µM,> 1 µM,> 2.5 µM,> 1 µM
CCOC(=O)c1c(NC(=O)c2ccccc2)sc2c(O)c(CN(CC)CC)ccc12,> 1 µM,> 1 µM,> 2.5 µM,> 1 µM,> 1 µM,> 2.5 µM,> 1 µM
OC(CNC1CCCCC1)Cn1c2ccccc2c2ccccc21 (configuration not stated),> 1 µM,> 1 µM,> 2.5 µM,> 1 µM,> 1 µM,> 2.5 µM,> 1 µM
CCCN(CCC)CC(O)COc1ccccc1C(=O)Nc1ccccc1 (configuration not stated),> 1 µM,> 1 µM,> 2.5 µM,> 1 µM,> 1 µM,> 2.5 µM,> 1 µM
COc1ccc(C=C2SC(=N)N(c3ccccc3OC)C2=O)cc1,> 1 µM,> 1 µM,> 2.5 µM,> 1 µM,> 1 µM,> 2.5 µM,> 1 µM
COc1ccc(NC(=O)C2c3ccccc3C(=O)N(CC(C)C)C2c2cccs2)cc1Cl (configuration not stated),> 1 µM,> 1 µM,> 2.5 µM,> 1 µM,> 1 µM,> 2.5 µM,> 1 µM
CCOC(=O)c1c(C)n(-c2ccc(Cl)cc2)c2ccc(OC(=O)C=Cc3ccccc3)cc12,> 1 µM,> 1 µM,> 2.5 µM,> 1 µM,> 1 µM,> 2.5 µM,> 1 µM
C=CC12CCN(CC1)C(C(O)c1ccnc3ccc(OC)cc13)C2 (configuration not stated),> 1 µM,> 1 µM,> 2.5 µM,> 1 µM,> 1 µM,> 2.5 µM,> 1 µM
Cc1ccc(-c2cc3nc4c(c(O)n3n2)CCCC4)cc1,> 1 µM,> 1 µM,> 2.5 µM,> 1 µM,> 1 µM,> 2.5 µM,> 1 µM
Cc1cc(C)c2c(c1)OCN(Cc1ccccc1Cl)C2,> 1 µM,> 1 µM,> 2.5 µM,> 1 µM,> 1 µM,> 2.5 µM,> 1 µM
COc1ccccc1NC1=C(N2CCCCC2)C(=O)c2ccccc2C1=O,> 1 µM,> 1 µM,> 2.5 µM,> 1 µM,> 1 µM,> 2.5 µM,> 1 µM
Cc1cc(NC(=O)C2c3ccccc3C(=O)N(CC(C)C)C2c2cccs2)no1 (configuration not stated),> 1 µM,> 1 µM,> 2.5 µM,> 1 µM,> 1 µM,> 2.5 µM,> 1 µM
Cc1ccc(N2C3c4ccccc4N(S(=O)(=O)c4ccc(C)cc4)C2c2ccccc2N3S(=O)(=O)c2ccc(C)cc2)cc1,> 1 µM,> 1 µM,> 2.5 µM,> 1 µM,> 1 µM,> 2.5 µM,> 1 µM
c1ccc(Cn2c(N=Nc3c(Nc4ccccc4)ccc4ccccc34)nc3ccccc32)cc1,> 1 µM,> 1 µM,> 2.5 µM,> 1 µM,> 1 µM,> 2.5 µM,> 1 µM
